Test results: US9624491B2, “Methods and compositions for the detection and treatment of cancer involving miRNAs and miRNA inhibitors and targets” (Memorial Sloan Kettering Cancer Center, priority 2010, dated 2017)

B1: TTTGGCACTGGTAGAACTCCCAATCTTCCTGTCAGAGTGTGAGTTCTACCATTGCCAAATTTTT (nucleic acid)
antisense: TTTGGCACTGGTAGAACTCCCAATCTTCCTGTCAGAGTGTGAGTTCTACCATTGCCAAATTTTT
modifications: listed as DNA, chemistry not fully specified
notes: control antagomir to the randomly chosen miR-182

Columns and labels:
T-ALL1 cells [1] = experiment: Cell number during in vitro culture of T-ALL1 cells expressing antagomirs; assay type: cell-based, human; details: T-ALL1, 6 d culture
Protocol: (§1) Given the pleiotropic and partially overlapping pattern of tumor suppressor gene regulation by multiple miRNAs, the effect of miRNA antagomirs on the growth rate and viability of two human T-ALL cell lines, T-ALL1 and Koptk1, were assessed. The human T-ALL1 cell line expresses high levels of miR-19a, miR-19b, miR-26a and miR-92 but only low levels of other miRNAs, e.g. miR-148a and the randomly chosen miR-182 (FIG. 27b inset). […] Results in the Koptk1 cell line were analogous to those in the T-ALL1 cell line (FIG. 28).
(§2) FL5-12 murine pro B-lymphocytes, cell cycle and apoptosis studies and viral transductions were as described (Mavrakis, et al., 2008), (Plas, Talapatra, Edinger, Rathmell, & Thompson, 2001). T-ALL cell lines, including Jurkat, were cultured in RPMI 1640 medium supplemented with 10-20% fetal calf serum, 100 U/ml penicillin G and 100 μg/ml streptomycin at 37° C. in a humidified atmosphere under 5% CO2. All vectors are based on murine stem cell virus (MSCV) and include the miRNA expression vector encoding all miRNAs described (He, et al., 2005), NOTCH1-ICN (Pear, et al., 1996) and the individual shRNA vectors (protein knockdown by shRNAs; FIG. 10). The miRNA pooled library (He, et al., 2005) is a generous gift from G. J. Hannon and has been expanded by PCR cloning to contain ˜300 miRNAs. The antagomirs MZIP19a-PA-1, MZIP19b-PA-1, MZIP26a-PA-1, MZIP92a-PA-1, MZIP148a-PA-1, MZIP182-PA1, MZIP223-PA-1 and scrambled control (MZIP000-PA-1) were from System Biosciences.

PTEN and BCL2L11 = experiment: Quantitative RT-PCR of BCL2L11 and PTEN mRNA in T-ALL1 cells; assay type: cell-based, human
From the text: (§3) Total RNA and miRNA-enriched RNA was extracted using the Allprep DNA/RNA/Protein and miRNeasy Mini kits. Pathological diagnosis was by expert hematopathologists at Weill Cornell Medical Center. cDNA synthesis, PCR and analysis by the ΔΔ Ct method were as described (Mavrakis, et al., 2008) and utilized Taqman Gene Expression Assays: Bcl2l11 (Mm00437796_m1), BCL2L11 (Hs00197982_m1), Pten (Mm01212532_m1), PTEN (Hs02621230_s1), Nf1 (Mm00812430_m1), NF1 (Hs01035104_m1), Ikzf1 (Mm01187878_m1), IKZF1 (Hs00172991_m1), Fbxw7 (Mm00504452_m1), FBXW7 (Hs00217794_m1), Phf6 (Mm00804415_m1), and Mouse GAPD (GAPDH) (4352932, Applied Biosystems). Expression was normalized to RNU6B (001093, Applied Biosystems).

T-ALL1 cells [2] = experiment: Viability of T-ALL1 cells transduced with antagomirs; assay type: cell-based, human
Protocol: as §1, §2

FL5-12 lymphocytes = experiment: IL3 depletion competition assay for cytokine-independent survival of FL5-12 lymphocytes; assay type: cell-based, murine; details: for IL-3 independence of FL5-12 cells: retest of individual miRNAs from secondary library screen
Protocol: An established in vitro assay of hematopoietic transformation (Plas, Talapatra, Edinger, Rathmell, & Thompson, 2001) was used to identify the key oncogenic activities within the 17˜92 cluster and its paralogues. All miRNAs representing families of unique seed sequences, specifically miR-17, miR-18a, miR-19b-1 (miR-19), miR-20a, miR-106a, miR-106b and miR-25 were tested (FIG. 1a). The assay is based on the IL3 dependence of FL5-12 lymphocytes, which undergo apoptosis when removed from IL3. In competition experiments, FL5-12 cells were partially transduced with GFP plus individual miRNAs or empty vector and these mixed populations were monitored by fluorescence-activated cell sorting (FACS) for changes in their relative proportions (FIG. 1b).
FL5-12 murine lymphocytes, IL3 depletion studies and viral transductions were as described (Mavrakis, et al., 2008) (Plas, Talapatra, Edinger, Rathmell, & Thompson, 2001). Cell cycle and cell death assays based on uptake of DNA staining dye (LDS751) using Cell cycle and Viacount assays from Guava Technologies were performed as reported (Mavrakis, et al., 2008). The retroviral vectors are based on murine stem cell virus (MSCV) and include the miRNA expression vectors encoding miRs 17, 18a, 19b-1 (miR-19), 106a, 106b, 25 (He, et al., 2005), the vectors encoding Notch-ICN (a gift from W. Pear) (Pear, et al., 1996) and Bcl2 (Wendel, et al., 2004), the individual shRNA vectors (FIG. 17) and the library vector (MRP) (FIGS. 18a and b). miRNA inhibitor oligonucleotides (antagomirs) MZIP19a-PA-1, MZIP19b-PA-1, and scrambled control (MZIP000-PA-1) were from System Biosciences.
The primary screen is based on c-MYC-induced apoptosis in MEFs (Evan, et al., 1992). MEFs were transduced with c-MYC and the miRNA library and cultured in puromycin to select for homogeneous c-MYC expression; apoptosis was triggered by diluting serum from 10% to 0.1%. Surviving cells remained adherent and were collected for DNA isolation, PCR amplification of the integrated miRNA library constructs, sub-cloning into pGEM-T vector, bacterial transformation, and sequence identification of ˜100 colonies. A secondary library was constructed by sub-cloning all miRNAs from the primary screen into an MSCV construct. The secondary screen is based on the IL-3 dependence of FL5-12 lymphocytes in vitro (Mavrakis, et al., 2010), (Plas, Talapatra, Edinger, Rathmell, & Thompson, 2001). FL5-12 cells were partially transduced with the pooled, GFP-tagged library and selected by IL-3 depletion. miRNAs were identified as above. Individual miRNAs were subsequently validated in the same FL5-12 assay and in vivo.

[3] = test system: PTEN, BCL2L11, PHF6, IKZF1, NF1, FBXW7; experiment: 3′UTR reporter, quantitative PCR and immunoblot assays of tumor suppressor genes in murine leukemias; assay type: cell-based; details: murine T-ALLs expressing NOTCH1 and miRNA, mRNA, protein
Protocol: Immunoblots of whole cell lysates were performed as described (Wendel, et al., 2004). Antibodies were against Bim/Bcl2l11 (AAP-330, 1:1000, Assay Designs), Nf1 (sc67, 1:100, Santa Cruz), Cdc4/Fbxw7 (ab7405, 1:500, Abeam), Ikzf1 (sc-13039, 1:500, Santa Cruz), Phf6 (NB100-79861, 1:1000, Novus Biologicals), Pten (9559, 1:1000, Cell Signaling), tubulin (1:5000; Sigma, B-5-1-2) and actin (1:5000; Sigma, AC-15).
as §3
The mouse FBXW7 (bp 2793-4139; acc. no. NM_001177773), human NF1 (bp 10033-10666; acc. no NM_000267), human PHF6 (bp position 3271-4299; acc. no. NM_001015877) and Bim (bp. 3155-4773; acc. no. NM_009754) 3′UTR fragments were generated by PCR and cloned into the psi-CHECK-2 vector (Promega) with the exception of the IKZF1 3′UTR, which was purchased from Genecopoeia (cat no. HmiT000397b, by 2343-4471 of UTR). The assays were performed as described (Xiao, et al., 2008).

Row | Molecule | growth rate (T-ALL1 cells [1]) | expression of PTEN and BCL2L11 (PTEN and BCL2L11) | cell viability (T-ALL1 cells [2]) | IL-3 independence of FL5-12 cells (FL5-12 lymphocytes) | regulation of tumor suppressor genes [3] | enrichment of cells co-expressing miR-19/GFP following IL3 depletion (FL5-12 lymphocytes; treated with 1 μM metformin to activate AMP-kinase)
1 | TTCAAGTGATCCAGGATCGGATCTTCCTGTCAGAGCCTATCCTGGATTACTTGAATTTTT (listed as DNA, chemistry not fully specified) [antagomir against miR-26a, antagomir to miR26a, miRZIP from System Biosciences] | reduce growth rate | de-repress the tumor suppressor genes PTEN and BCL2L11 | significantly decrease cell viability | – | – | –
2 | miR-26: miRNA, UUCAAGUAAUCCAGGAUAGGCU (SEQ ID NO: 5) (expressed or natural sequence; listed as Homo sapiens) | – | – | – | confirmed to confer IL-3 independence on FL5-12 cells | reduce levels of PTEN and PHF6 protein and mRNA in leukemic cells | –
3 | CN(C)C(=N)N=C(N)N [metformin, reference compound] | – | – | – | – | – | Neither the other cDNAs nor metformin treatment abrogated miR-19's protective function
4 | TCAGTGCGCTACAGAACGTTATCTTCCTGTCAGACAAAGTTCTGTAGTGCACTGATTTTT (listed as DNA, chemistry not fully specified) [antagomir against miR-148a, antagomir to miR148, miRZIP from System Biosciences] | no significant (p>0.05) effect | no significant (p>0.05) effect | no significant (p>0.05) effect | – | – | –
5 | miR-223: miRNA, UGUCAGUUUGUCAAAUACCCCA (SEQ ID NO: 10) (expressed or natural sequence; listed as Homo sapiens) | – | – | – | confirmed to confer IL-3 independence on FL5-12 cells | strongly regulates FBXW7 reporter activity and protein levels | –
6 | miR-92: miRNA, UAUUGCACUUGUCCCGGCCUGU (SEQ ID NO: 6) (expressed or natural sequence; listed as Homo sapiens) | – | – | – | – | affects IKZF1 and FBWX7 but does not target the murine NF1 | –
7 | miR-20a: miRNA, UAAAGUGCUUAUAGUGCAGGUAG (SEQ ID NO: 3) (expressed or natural sequence; listed as Homo sapiens) | – | – | – | – | reduce levels of PTEN and PHF6 protein and mRNA in leukemic cells | –
8 | TATTGCAATTGTCCCGGACTATCTTCCTGTCAGACAGGCCGGGACAAGTGCAATATTTTT (listed as DNA, chemistry not fully specified) [antagomir against miR-92, antagomir to miR92a, miRZIP from System Biosciences] | reduce growth rate | de-repress the tumor suppressor genes PTEN and BCL2L11 | significantly decrease cell viability | – | – | –
9 | B1 | no significant (p>0.05) effect | no significant (p>0.05) effect | no significant (p>0.05) effect | – | – | –
